# “And” between values parts separate entries of the source, which are not always exact repeats. Equal values may be shown once.
# Legend:
# blood cell subsets = assay: Blood immunophenotyping (flow cytometry of cell surface markers); type: in vivo, C57BL/6 mice
# Description: (§1) Female, 6- to 8-week old, C57BL/6 mice were pre-treated on day -3, -2 and -1 per o.s. or intravenously at day 0 with different concentrations of MCT. Immunophenotyping was also performed on immunosuppressed animals. […] Mice were sacrificed on day 5 by cardiac puncture. Blood and spleens were collected and cell suspensions prepared and erythrocytes lysed in ACK buffer (155 mM NH4Cl, 12 mM NaHCO3, 0.1 mM EDTA, pH 7.3) for 5 minutes. The cells were washed three times in PBS, pH 7.4 and resuspended in tissue culture medium. The cells were then incubated for 45 minutes on ice with fluorescein isothiocyanate (FITC) or phycoerythrin (PE) conjugated cell surface marker according to the manufacturer's (Gibco/BRL, Cedarlane, Boehringer Mannheim) recommendation. The cells were then washed in PBS, fixed with 1% paraformaldehyde and analyzed with a Coulter XL flow cytometer. Analysis of the cell subsets was undertaken by determination of standard cell surface markers which were as follows: TCR (T-cell receptor), CD4 (T helper), CD8 (T cytotoxic/suppressor), CD11b (macrophage), NK (NK cells) and Ly5 (B-cells). Bone marrow cells were obtained as described in example 15. Cells were stained by a 45 minutes incubation of FITC or PE conjugated cell surface marker according to the manufacturer's recommendation. The cells were then washed in PBS, fixed with 1% paraformaldehyde and analyzed with a Coulter XL flow cytometer. Analysis of the cell subsets was undertaken by determination of standard cell surface markers which were as follows: CD34 (hematopoietic progenitor cells), CD41 (platelets, megakaryocytes), CD13 (myelomonocytic stem cells, myelocytes, promonocytes) and CD38 (lymphoid stem cells, pro-B, pre-B).
# spleen cell subsets = assay: Spleen immunophenotyping (flow cytometry of cell surface markers); type: in vivo, C57BL/6 mice; conditions: for Spleen Immunophenotyping: effect compared to cyclophosphamide alone (words): CY (200 mg/kg) immunosuppressed mice
# Description: as §1
# bone marrow cell subsets = assay: Bone marrow immunophenotyping (CD34, CD13, CD41, CD38); type: in vivo, C57BL/6 mice; conditions: mouse, in vivo
# Description: as §1
# The effect of MCT, sodium caprylate, sodium caprate on bone marrow immunophenotyping was assessed by the protocol described in example 26.
# bone marrow cells = assay: In vivo chemoprotection: bone marrow cell count; conditions: for effect on bone marrow cell count compared to cyclophosphamide treated mice: protocol of example 16 (pre-treatment)
# Description: (§2) To examine the immunoprotective effect of MCT or other compounds, mice were pre-treated orally at day-3, -2 and -1 or treated intravenously at day 0 with the test compound. Mice were sacrificed at day +5 by cardiac puncture and cervical dislocation. Then, cell suspensions were prepared from thymus, spleen and bone marrow as follow.
# (§3) Tissues were crushed in PBS buffer and contaminating erythrocytes were lysed in ACK buffer (155 mM NH4Cl, 12 mM NaHCO3, 0.1 mM EDTA, pH 7.3) for 5 minutes. Cells were then collected by centrifugation and washed three times in PBS and resuspended in tissue culture medium. Cells were counted on a hemacytometer.
# (§4) Chemoprotection studies were performed as described in example 16 except that mice were (post)-treated with MCT, sodium caprylate, sodium caprate or capric acid per o.s. on day 1, 2, 3 and 4.
# spleen cells = assay: In vivo chemoprotection: spleen cell count; conditions: for effect on spleen cell count compared to cyclophosphamide treated mice: protocol of example 16 (pre-treatment)
# Description: as §2, §3, §4
# DA-3 breast carcinoma = assay: Antitumor activity in DA-3 breast carcinoma model; type: in vivo, BALB/c mice; set-up: Tumor volume: unit not given here; conditions: for effect on tumor volume compared to the control: FIG. 12, Table 20; for effect on tumor volume compared to the control / T/C (%): therapeutic CY 200 mg/kg, TX 30 mg/kg; for Treated/Control (%) / Tumor volume: Table 19, sub-therapeutic CY 100 mg/kg, TX 20 mg/kg i.v. day 9 and 16, MCT per os, day 23; for T/C (%): Table 20
# Description: The syngeneic tumor DMBA3 (DA-3, breast carcinoma model) arose from a preneoplastic lesion treated with 7,12-dimethylbenzanthracene in female BALB/c mice. DA-3 cells were grown as monolayer cultures in plastic flasks in RPMI-1640 containing 0.1 mM nonessential amino acids, […], 2 mM L-glutamine and 100 μg/ml gentamycin sulfate. This was further supplemented with 50 μM 2-mercaptoethanol and 10% fetal bovine serum. The DA-3 tumors were serially passage in vivo by s.c. inoculation of 5×10^5 viable tumor cells to produce localized tumors in 6- to 8-week old BALB/c mice. The animals were then serially monitored by manual palpation for evidence of tumor. Serial tumor volume was obtained by bi-dimensional diameter measurements with calipers, using the formula […] (a×b^2) where “a” was the major tumor diameter and “b” the minor perpendicular diameter.
# BABL/c mice were injected with tumor cells on day 0. […] Body weights and tumor volumes were monitored from day 4 until day 23. At day 23, all animals were sacrificed. The % T/C (treatment over control) was calculated as the ratio of tumor volumes at termination date in the treatment group divided by the respective volumes in the control group multiplied by 100. By the NCl criteria the product is considered effective if % T/C is ≦40%.
# human neutrophils (PMN) = assay: Doxorubicin-induced neutrophil apoptosis, comparison to GM-CSF (% PMN viability); type: cell-based; conditions: for effect on doxorubicin-induced human neutrophil apoptosis: Table 2
# Description: Table 2 represents the effect of GM-CSF, MCT and tricaprylin on doxorubicin-induced human neutrophil apoptosis.
# thymus = assay: In vivo: thymus weight, MCT versus GM-CSF; conditions: normal mice; FIG. 8
# Description: as §2
# In vivo comparison on the induction of immune cell proliferation/regeneration or protection was undertaken following the protocol described in example 16. Comparative studies of MCT and GM-CSF were performed on normal and immunosuppressed animals.
# [1] = Table 5, CY-treated mice, CY + test compound (CY line = CY alone), protocol of example 16
# [2] = Table 6, CY-treated mice, CY + test compound (CY line = CY alone), protocol of example 16
# [3] = Table 7, CY-treated mice, CY + test compound 6.25 μMole pre-treatment (CY line = CY alone)
# [4] = Table 8, CY-immunosuppressed mice, CY + test compound 6.25 μM (CY line = CY alone)
# [5] = Table 9, CY-immunosuppressed mice, CY + test compound 6.25 μMole (CY line = CY alone)
# [6] = Table 10, CY-treated mice, post-treatment per o.s. on day 1, 2, 3 and 4 with test substance 12.5 μM (CY line = CY alone)
# [7] = Table 16, CY-treated mice, CY + test compound (CY line = CY alone), protocol of example 16
# [8] = immunosuppressed animals, comparison MCT versus GM-CSF
# [9] = CY-treated mice, post-treatment per o.s. on day 1, 2, 3 and 4
# [10] = Table 11, CY + capric acid 3.125 μMole post-treatment per o.s. day 1, 2, 3 and 4
# [11] = Table 11, CY + capric acid 6.25 μMole post-treatment per o.s. day 1, 2, 3 and 4
# [12] = Table 11, CY + capric acid 12.5 μMole post-treatment per o.s. day 1, 2, 3 and 4
compound,measurement,setting,value
"O=P1(N(CCCl)CCCl)NCCCO1 (centres unmarked) [CY, cyclophosphamide, reference compound]",Blood Immunophenotyping: CD11+ cell subset (relative percentage),"blood cell subsets; mouse, in vivo",26.41 ± 4.54
same,Blood Immunophenotyping: LY5−TCR− cell subset (relative percentage),"blood cell subsets; mouse, in vivo",36.82 ± 9.93 and 56.36 ± 7.26 and 40.91 ± 8.84
same,Spleen Immunophenotyping: CD11+ cell subset (relative percentage),"spleen cell subsets; mouse, in vivo",16.31 ± 4.85
same,Spleen Immunophenotyping: NK+ cell subset (relative percentage),"spleen cell subsets; mouse, in vivo",7.53 ± 2.52
same,% Cells CD13+ (bone marrow),bone marrow cell subsets,3.2 ± 0.5%
same,% Cells CD34+ (bone marrow),bone marrow cell subsets,10 ± 1.0%
same,% Cells CD38+ (bone marrow),bone marrow cell subsets,39.6 ± 13.6%
same,% Cells CD41+ (bone marrow),bone marrow cell subsets,4.2 ± 0.6%
same,Bone marrow immunophenotyping,bone marrow cell subsets,induces a significant increase in all studied subsets
same,effect of cytotoxic drug on bone marrow cell count compared to the control,"bone marrow cells; FIG. 6, cytotoxic drug i.v. at day 0",depressed the bone marrow cell count compared to the control
same,Bone Marrow # Cells (×10^6),bone marrow cells; [1],22 ± 5.7 ×10^6
same,Bone Marrow # Cells (×10^6),bone marrow cells; [2],22 ± 5.8 ×10^6
same,Bone Marrow # Cells (×10^6),bone marrow cells; [3],32 ± 6.3 ×10^6
same,Bone Marrow # Cells (×10^6),bone marrow cells; [4],27 ± 2.8 ×10^6
same,Bone Marrow # Cells (×10^6),bone marrow cells; [5],25 ± 4.9 ×10^6
same,Bone Marrow # Cells (×10^6),bone marrow cells; [6],19 ± 4.99 ×10^6
same,Bone Marrow # Cells (×10^6),bone marrow cells; [7],28 ± 3.4 ×10^6
same,Bone Marrow # Cells (×10^6),"bone marrow cells; Table 17, CY-treated mice, CY + test compound (CY line = CY alone), protocol of example 16",26.2 ± 2.6 ×10^6
same,Bone Marrow # Cells (×10^6),"bone marrow cells; Table 18, CY-treated mice, CY + test compound (CY line = CY alone), protocol of example 16",27.5 ± 8.0 ×10^6
same,effect of cytotoxic drug on spleen cell count compared to the control,"spleen cells; FIG. 7, cytotoxic drug i.v. at day 0",reduce significantly the spleen cell count compared to the control
same,Spleen # Cells (×10^6),spleen cells; [1],23 ± 4.0 ×10^6
same,Spleen # Cells (×10^6),spleen cells; [2],36 ± 13.6 ×10^6
same,Spleen # Cells (×10^6),spleen cells; [3],24 ± 6 ×10^6
same,Spleen # Cells (×10^6),spleen cells; [4],19 ± 6.5 ×10^6
same,Spleen # Cells (×10^6),spleen cells; [5],33 ± 13.2 ×10^6
same,Spleen # Cells (×10^6),spleen cells; [6],30 ± 9.5 ×10^6
same,Spleen # Cells (×10^6),spleen cells; [7],29 ± 9.2 ×10^6
same,effect on tumor volume compared to the control,DA-3 breast carcinoma,significant reduction of the tumor volume
same,Treated/Control (%),DA-3 breast carcinoma,46.8%
same,Tumor volume,DA-3 breast carcinoma,27.5 ± 15.9
same,T/C (%),DA-3 breast carcinoma,18.8%
"CCCCCCCCCC(=O)OCC(N)COC(=O)CCCCCCCCC [didecanoyl serinol, 1,3-O,O-Didecanoyl serinol]",melting point,,101 °C
same,Bone Marrow # Cells (×10^6),bone marrow cells; [7],30 ± 3.8 ×10^6
same,Spleen # Cells (×10^6),spleen cells; [7],36 ± 9.9 ×10^6
CCCCCCCC(=O)OCC(COC(=O)CCCCCCC)OC(=O)CCCCCCC [tricaprylin],effect on doxorubicin-induced human neutrophil apoptosis,human neutrophils (PMN),rescues doxorubin-induced apoptosis and further enhances the viability of human neutrophils to a higher extent than that observed in the non-treated neutrophils
same,effect on bone marrow cell count compared to cyclophosphamide treated mice,bone marrow cells; CY-treated mice,efficacious in the proliferation or protection of bone marrow cell counts
same,Bone Marrow # Cells (×10^6),bone marrow cells; [2],34 ± 7.8 ×10^6
same,effect on spleen cell count compared to cyclophosphamide treated mice,spleen cells; CY-treated mice,No significant effect
same,Spleen # Cells (×10^6),spleen cells; [2],37 ± 12.6 ×10^6
"GM-CSF: granulocyte-macrophage colony stimulating factor, hematopoietic growth factor",% PMN Viability,human neutrophils (PMN); GM-CSF 10^-7 M + DOX (10^-5 M),16.75 ± 2.05%
same,% PMN Viability,human neutrophils (PMN); GM-CSF 10^-8 M + DOX (10^-5 M),6.99 ± 0.23%
same,effect on doxorubicin-induced human neutrophil apoptosis,human neutrophils (PMN),able to rescue or protect human neutrophils against doxorubicin-induced apoptosis
same,effect on thymus weight,thymus,significant effect
same,activity on bone marrow cell count,bone marrow cells; [8],has no significant activity on bone marrow and spleen cell counts
same,activity on spleen cell count,spleen cells; [8],has no significant activity on bone marrow and spleen cell counts
CCCCCCCCCC(=O)O [capric acid],Blood Immunophenotyping: effect compared to cyclophosphamide alone (words),blood cell subsets; CY (200 mg/kg) immunosuppressed mice,significantly increase the relative percentage of LY5-TCR- on blood
same,Blood Immunophenotyping: LY5−TCR− cell subset (relative percentage),"blood cell subsets; Table 14, CY (200 mg/kg) immunosuppressed mice, compound 6.25 μM",61.52 ± 5.16
same,Blood Immunophenotyping: LY5−TCR− cell subset (relative percentage),"blood cell subsets; Table 14, CY (200 mg/kg) immunosuppressed mice, compound 12.5 μM",70.79 ± 3.95
same,Spleen Immunophenotyping: effect compared to cyclophosphamide alone (words),spleen cell subsets,no significant effect compared to cyclophosphamide alone
same,Spleen Immunophenotyping: effect compared to cyclophosphamide alone (words),spleen cell subsets; listed as Capric acid,No significant effect
same,"effect on bone marrow cell count, post-treatment",bone marrow cells; [9],weak increase in bone marrow cell count
same,effect on bone marrow cell count compared to cyclophosphamide treated mice,bone marrow cells; CY-treated mice,significantly enhances the bone marrow cell counts
same,Bone Marrow # Cells (×10^6),bone marrow cells; [1],32 ± 2.71 ×10^6
same,Bone Marrow # Cells (×10^6),bone marrow cells; [10],37 ± 7.8 ×10^6
same,Bone Marrow # Cells (×10^6),bone marrow cells; [11],38 ± 4.6 ×10^6
same,Bone Marrow # Cells (×10^6),bone marrow cells; [12],38 ± 7.4 ×10^6
same,"effect on spleen cell count, post-treatment",spleen cells; [9],significant increase in spleen cell count
same,effect on spleen cell count compared to cyclophosphamide treated mice,spleen cells; CY-treated mice,No significant effect
same,Spleen # Cells (×10^6),spleen cells; [1],27 ± 8.4 ×10^6
same,Spleen # Cells (×10^6),spleen cells; [10],31 ± 8.7 ×10^6
same,Spleen # Cells (×10^6),spleen cells; [11],25 ± 6.3 ×10^6
same,Spleen # Cells (×10^6),spleen cells; [12],36 ± 7.8 ×10^6
"CC(=O)O[C@@]12CO[C@@H]1C[C@H](O)[C@@]1(C)C(=O)[C@H](O)C3=C(C)[C@@H](OC(=O)[C@H](O)[C@@H](NC(=O)OC(C)(C)C)c4ccccc4)C[C@@](O)([C@@H](OC(=O)c4ccccc4)[C@H]21)C3(C)C [TX, taxotere]",effect of cytotoxic drug on bone marrow cell count compared to the control,"bone marrow cells; mouse, in vivo, iv",has no significant effect on bone marrow cell count
same,effect of cytotoxic drug on spleen cell count compared to the control,"spleen cells; mouse, in vivo, iv",reduce significantly the spleen cell count compared to the control
same,effect on tumor volume compared to the control,DA-3 breast carcinoma,not significant compared to the control mice
same,Treated/Control (%),DA-3 breast carcinoma,64.5%
same,Tumor volume,DA-3 breast carcinoma,37.9 ± 41.5
same,T/C (%),DA-3 breast carcinoma,64.7%
